Experimental data published in PMC7587356, “High-Throughput Screening for Inhibitors of the SARS-CoV-2 Protease Using a FRET-Biosensor” (Molecules, 2020).
Like-named read-outs stand apart in the source and are kept apart here.

How the values were obtained:
SARS-CoV-2 3CLpro [1] = biological target: T1, SARS-CoV-2 3CLpro (Severe acute respiratory syndrome coronavirus 2, UniProt P0DTD1); assay: biochemical; assay type: biochemical; details: for inhibition at 5 µM: 4 h
SARS-CoV-2 3CLpro [2] = biological target: T1, SARS-CoV-2 3CLpro; assay: biochemical; assay type: biochemical; details: for reduction in levels of inhibition upon addition of 0.01% Triton X-100: with vs without 0.01% Triton X-100
[3] = sheet LOPAC_screen_w_protease, primary screen at 5 µM, mean of two replicates
[4] = sheet LOPAC_screen_w_protease, primary screen at 5 µM, replicate 1
[5] = sheet LOPAC_screen_w_protease, primary screen at 5 µM, replicate 2
[6] = with 0.01% Triton X-100; mean ± SD of triplicate; 4 h, 30 °C; read-out: A) EC50 with Triton X-100
[7] = without Triton X-100; mean ± SD of triplicate; 4 h, 30 °C; read-out: B) EC50 without Triton X-100
[8] = sheet LOPAC_screen_w_protease, primary screen at 5 µM, mean of two replicates, read-out: mean (LOPAC screen with protease)
[9] = sheet LOPAC_screen_w_protease, primary screen at 5 µM, replicate 1, read-out: Replicate_1 (LOPAC screen with protease)
[10] = sheet LOPAC_screen_w_protease, primary screen at 5 µM, replicate 2, read-out: Replicate_2 (LOPAC screen with protease)
[11] = with 0.01% Triton X-100, read-out: EC50
[12] = EC50 with Triton X-100 / EC50 without Triton X-100, ratio greater than 2 suggests aggregation-based inhibitor
[13] = read-out: Replicate_1 (LOPAC screen with protease)
[14] = read-out: Replicate_2 (LOPAC screen with protease)
[15] = read-out: mean (LOPAC screen with protease)

SMILES | mean (LOPAC screen with protease) (SARS-CoV-2 3CLpro [1]; [3]) | Replicate_1 (LOPAC screen with protease) (SARS-CoV-2 3CLpro [1]; [4]) | Replicate_2 (LOPAC screen with protease) (SARS-CoV-2 3CLpro [1]; [5]) | Ratio (A/B) (SARS-CoV-2 3CLpro [2]) | EC50 (SARS-CoV-2 3CLpro [2]; [6]) | EC50 (SARS-CoV-2 3CLpro [2]; [7]) | further results
Br.Oc1ccc(C2CNCc3sccc32)cc1O (centres unmarked) [SKF 89626, reference compound] | 42.8167 | 43.262 | 42.3715 | 1.2 | 3530 ± 565 nM | 2830 ± 1970 nM | 
N=C1Sc2ccccc2C2=NCCCN12 [PD 404,182, reference compound] |  |  |  | 1.4 |  | 60 ± 12 nM | inhibition at 5 µM (SARS-CoV-2 3CLpro [1]; [8]): 101%; inhibition at 5 µM (SARS-CoV-2 3CLpro [1]; [9]): 101%; inhibition at 5 µM (SARS-CoV-2 3CLpro [1]; [10]): 100%; EC50 (SARS-CoV-2 3CLpro [2]; [11]): 81 nM
Cc1c(OCC(F)(F)F)ccnc1C[S+]([O-])c1nc2ccccc2[nH]1 (centres unmarked) [Lansoprazole, reference compound] | 41.5106 | 48.0924 | 34.9288 | 3.9 |  |  | EC50 (SARS-CoV-2 3CLpro [2]; A) EC50 with Triton X-100): 5720 ± 865 nM; EC50 (SARS-CoV-2 3CLpro [2]; B) EC50 without Triton X-100): 1460 ± 398 nM
CC(C)(C)c1ccc(S(=O)(=O)/C=C/C#N)cc1 [Bay 11-7085, reference compound] | 90.2992 | 92.052 | 88.5464 |  | 1620 ± 103 nM | 807 ± 120 nM | Ratio (A/B) (SARS-CoV-2 3CLpro [2]; [12]): 2.0
Oc1ccccc1O [Pyrocatechol, reference compound] | 52.6956 | 53.9412 | 51.45 | 1.0 | 4040 ± 1420 nM | 4090 ± 1220 nM | 
O=C(O)c1cc[c]([Hg][Cl])cc1 [4-Chloromercuribenzoic acid, reference compound] | 103.38 | 104.085 | 102.675 | 0.9 |  | 95 ± 7 nM | EC50 (SARS-CoV-2 3CLpro [2]; [11]): 85 nM
CN(N=O)c1ccc(O)c(O)c1 [Me-3,4-dephostatin, reference compound] | 27.3002 | 29.2005 | 25.3998 | 2.1 | 3780 ± 867 nM | 1820 ± 925 nM | 
Oc1cc(O)cc(/C=C/c2ccc(O)c(O)c2)c1 [Piceatannol, reference compound] |  |  |  | 1.3 | 569 ± 75 nM | 455 ± 113 nM | inhibition at 5 µM (SARS-CoV-2 3CLpro [1]; [8]): 92.3%; inhibition at 5 µM (SARS-CoV-2 3CLpro [1]; [9]): 93.6%; inhibition at 5 µM (SARS-CoV-2 3CLpro [1]; [10]): 91.1%
Oc1cc2c(cc1O)CN(C(=S)NCCc1ccc(Cl)cc1)CCC2 [Capsazepine, reference compound] |  |  |  | 1.4 |  |  | inhibition at 5 µM (SARS-CoV-2 3CLpro [1]; [13]): 91.9%; inhibition at 5 µM (SARS-CoV-2 3CLpro [1]; [14]): 90.5%; inhibition at 5 µM (SARS-CoV-2 3CLpro [1]; [15]): 91.2%; EC50 (SARS-CoV-2 3CLpro [2]; A) EC50 with Triton X-100): 944 ± 98 nM; EC50 (SARS-CoV-2 3CLpro [2]; B) EC50 without Triton X-100): 668 ± 330 nM
O=C1O/C(=C/Br)CCC1c1cccc2ccccc12 (centres unmarked) [Bromoenol lactone, reference compound] |  |  |  | 1.1 | 817 ± 121 nM | 757 ± 73 nM | inhibition at 5 µM (SARS-CoV-2 3CLpro [1]; [13]): 100%; inhibition at 5 µM (SARS-CoV-2 3CLpro [1]; [14]): 99.7%; inhibition at 5 µM (SARS-CoV-2 3CLpro [1]; [15]): 99.9%
CN(N=O)c1cc(O)ccc1O [Dephostatin, reference compound] |  |  |  | 2.2 | 5030 ± 1220 nM | 2280 ± 619 nM | inhibition at 5 µM (SARS-CoV-2 3CLpro [1]; [8]): 35.5%; inhibition at 5 µM (SARS-CoV-2 3CLpro [1]; [9]): 36.5%; inhibition at 5 µM (SARS-CoV-2 3CLpro [1]; [10]): 34.6%
O=C(/C=C/c1ccc(O)c(O)c1)OCCc1ccccc1 [Caffeic acid phenethyl ester, reference compound] |  |  |  |  | > 20000 nM | > 20000 nM | inhibition at 5 µM (SARS-CoV-2 3CLpro [1]; [8]): 29.6%; inhibition at 5 µM (SARS-CoV-2 3CLpro [1]; [9]): 30.7%; inhibition at 5 µM (SARS-CoV-2 3CLpro [1]; [10]): 28.6%
N#CC(C#N)=C(N)/C(C#N)=C/c1cc(O)c(O)c(O)c1 [Tyrphostin 51, reference compound] |  |  |  | 2.1 | 19000 ± 14200 nM | 9120 ± 5300 nM | inhibition at 5 µM (SARS-CoV-2 3CLpro [1]; [13]): 28%; inhibition at 5 µM (SARS-CoV-2 3CLpro [1]; [14]): 28.9%; inhibition at 5 µM (SARS-CoV-2 3CLpro [1]; [15]): 28.5%
CC1(NCC(O)COc2cccc3[nH]ccc23)CCC(C(C)(C)NC(=O)CBr)CC1 (racemic) [(±)-Pindobind, reference compound] | 33.6627 | 33.8938 | 33.4316 |  | 4690 ± 3320 nM | > 20000 nM | 
CN1CCc2cc(O)cc3c2[C@H]1Cc1ccc(O)c(O)c1-3 [R(−)-2-Hydroxyapomorphine] |  |  |  |  | 450 ± 78 nM | 420 ± 101 nM | Ratio (A/B) (SARS-CoV-2 3CLpro [2]; [12]): 1.1
O=Nc1ccc2oc(=O)ccc2c1 [6-Nitroso-1,2-benzopyrone, reference compound] | 91.133 | 92.4944 | 89.7716 | 1.6 | 882 ± 110 nM | 559 ± 123 nM | 
N[C@@H](CCC(=O)N[C@@H](CSN=O)C(=O)NCC(=O)O)C(=O)O [S-Nitrosoglutathione, reference compound] |  |  |  | 1.5 |  |  | inhibition at 5 µM (SARS-CoV-2 3CLpro [1]; [13]): 44.1%; inhibition at 5 µM (SARS-CoV-2 3CLpro [1]; [14]): 41.7%; inhibition at 5 µM (SARS-CoV-2 3CLpro [1]; [15]): 42.9%; EC50 (SARS-CoV-2 3CLpro [2]; A) EC50 with Triton X-100): 2290 ± 245 nM; EC50 (SARS-CoV-2 3CLpro [2]; B) EC50 without Triton X-100): 1490 ± 627 nM
N#C/C(=C\c1ccc(O)c(O)c1)C(N)=S [Tyrphostin 47, reference compound] |  |  |  |  | > 20000 nM | 15800 ± 10100 nM | inhibition at 5 µM (SARS-CoV-2 3CLpro [1]; [8]): 28.2%; inhibition at 5 µM (SARS-CoV-2 3CLpro [1]; [9]): 30.5%; inhibition at 5 µM (SARS-CoV-2 3CLpro [1]; [10]): 25.9%
N.S=C(S)N1CCCC1 [APDC] |  |  |  | 0.8 | 1230 ± 64 nM | 1520 ± 697 nM | 
Oc1ccc2c3c1O[C@H]1c4[nH]c5c(c4C[C@@]4(O)[C@@H](C2)N(CC2CC2)CC[C@]314)C[C@@]1(O)[C@H]2Cc3ccc(O)c4c3[C@@]1(CCN2CC1CC1)[C@H]5O4 [nor-Binaltorphimine] |  |  |  |  | 5200 ± 1160 nM | 2600 ± 1490 nM | Ratio (A/B) (SARS-CoV-2 3CLpro [2]; [12]): 2.0
O=C1C(SCCO)=C(SCCO)C(=O)c2ccccc21 [NSC 95397, reference compound] | 19.1086 | 20.9168 | 17.3004 |  | > 20000 nM | > 20000 nM | 
COc1ccc2c(c1)CC[C@@H]1[C@@H]2CC[C@]2(C)[C@@H](NCCCCCCN3C(=O)C=CC3=O)CC[C@@H]12 [U-73122, reference compound] | 88.5998 | 89.4118 | 87.7878 |  | 694 ± 82 nM | 350 ± 17 nM | Ratio (A/B) (SARS-CoV-2 3CLpro [2]; [12]): 2.0
O=c1cc(O)cc(/C=C/c2ccc(O)c(O)c2)o1 [Hispidin, reference compound] |  |  |  | 2.8 |  |  | inhibition at 5 µM (SARS-CoV-2 3CLpro [1]; [13]): 46.3%; inhibition at 5 µM (SARS-CoV-2 3CLpro [1]; [14]): 38.9%; inhibition at 5 µM (SARS-CoV-2 3CLpro [1]; [15]): 42.6%; EC50 (SARS-CoV-2 3CLpro [2]; A) EC50 with Triton X-100): 5000 ± 554 nM; EC50 (SARS-CoV-2 3CLpro [2]; B) EC50 without Triton X-100): 1810 ± 828 nM
CN=c1nc(-c2ccccc2)n(-c2ccccc2)s1 [SCH-202676] |  |  |  |  | 274 ± 73 nM | 41 ± 8 nM | Ratio (A/B) (SARS-CoV-2 3CLpro [2]; [12]): 6.7; reduction in levels of inhibition upon addition of 0.01% Triton X-100 (SARS-CoV-2 3CLpro [2]): > 2 fold
CC(=O)NCCc1ccc(O)c(O)c1 [N-Acetyldopamine] |  |  |  | 1.8 | 2650 ± 550 nM | 1450 ± 222 nM | 
CCN(CC)C(=S)SSC(=S)N(CC)CC [Disulfiram] |  |  |  |  |  |  | reduction in levels of inhibition upon addition of 0.01% Triton X-100 (SARS-CoV-2 3CLpro [2]): > 2 fold
CN(C)C(=O)/N=N/C(=O)N(C)C [Diamide] |  |  |  |  | 17100 ± 20800 nM | > 20000 nM | 
O=C(O)Cc1ccc(O)c(O)c1 [DOPAC] |  |  |  | 1.3 | 3090 ± 226 nM | 2460 ± 117 nM | 
Oc1ccc(Cn2cc[nH]c2=S)cc1 [1-Hbit] |  |  |  |  | 7080 ± 5150 nM | > 20000 nM | 
